Assay results: the supplement of paper PMC12463676, “Small-molecule dissolution of stress granules by redox modulation benefits ALS models” (Nature Chemical Biology, 2025)

Tests used:
lipoamide = compound: NC(=O)CCCCC1CCSS1 [lipoamide]; experiment: thermal stability z-score vs DMSO; higher = more thermally stabilized by treatment; details: HeLa, lipoamide concentration 100 µM
Method: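 Cellular thermal proteome profiling in HeLa cells. Cells were treated with 100 µM lipoamide for 1 h, with or without 1 mM arsenate for a further 1 h, then heated to ten temperatures (37-66.3 °C), and soluble protein was quantified by TMT mass spectrometry relative to 0.1% DMSO controls. The thermal stability score (sum of log2 fold changes minus the abundance score) was transformed to a z-score; mean of n = 3 experiments.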

potassium arsenate = compound: O=[As]([O-])(O)O.[K+] [potassium arsenate]; experiment: as above; details: HeLa; arsenate concentration 1 mM
Method: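 Cellular thermal proteome profiling in HeLa cells treated with 1 mM arsenate for 1 h (DMSO pretreatment), heated to ten temperatures (37-66.3 °C). Soluble protein was quantified by TMT mass spectrometry relative to DMSO controls; the thermal stability score was transformed to a z-score; mean of n = 3 experiments.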

[1] = arsenate co-treatment: 1 mM arsenate 1 h
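Further: each temperature applied for 3 min, abundance score taken as mean log2 fold change at the two lowest temperatures, z-score obtained by mean subtraction and division by SD.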

UniProt P32004, sequence (P32004 whole entry): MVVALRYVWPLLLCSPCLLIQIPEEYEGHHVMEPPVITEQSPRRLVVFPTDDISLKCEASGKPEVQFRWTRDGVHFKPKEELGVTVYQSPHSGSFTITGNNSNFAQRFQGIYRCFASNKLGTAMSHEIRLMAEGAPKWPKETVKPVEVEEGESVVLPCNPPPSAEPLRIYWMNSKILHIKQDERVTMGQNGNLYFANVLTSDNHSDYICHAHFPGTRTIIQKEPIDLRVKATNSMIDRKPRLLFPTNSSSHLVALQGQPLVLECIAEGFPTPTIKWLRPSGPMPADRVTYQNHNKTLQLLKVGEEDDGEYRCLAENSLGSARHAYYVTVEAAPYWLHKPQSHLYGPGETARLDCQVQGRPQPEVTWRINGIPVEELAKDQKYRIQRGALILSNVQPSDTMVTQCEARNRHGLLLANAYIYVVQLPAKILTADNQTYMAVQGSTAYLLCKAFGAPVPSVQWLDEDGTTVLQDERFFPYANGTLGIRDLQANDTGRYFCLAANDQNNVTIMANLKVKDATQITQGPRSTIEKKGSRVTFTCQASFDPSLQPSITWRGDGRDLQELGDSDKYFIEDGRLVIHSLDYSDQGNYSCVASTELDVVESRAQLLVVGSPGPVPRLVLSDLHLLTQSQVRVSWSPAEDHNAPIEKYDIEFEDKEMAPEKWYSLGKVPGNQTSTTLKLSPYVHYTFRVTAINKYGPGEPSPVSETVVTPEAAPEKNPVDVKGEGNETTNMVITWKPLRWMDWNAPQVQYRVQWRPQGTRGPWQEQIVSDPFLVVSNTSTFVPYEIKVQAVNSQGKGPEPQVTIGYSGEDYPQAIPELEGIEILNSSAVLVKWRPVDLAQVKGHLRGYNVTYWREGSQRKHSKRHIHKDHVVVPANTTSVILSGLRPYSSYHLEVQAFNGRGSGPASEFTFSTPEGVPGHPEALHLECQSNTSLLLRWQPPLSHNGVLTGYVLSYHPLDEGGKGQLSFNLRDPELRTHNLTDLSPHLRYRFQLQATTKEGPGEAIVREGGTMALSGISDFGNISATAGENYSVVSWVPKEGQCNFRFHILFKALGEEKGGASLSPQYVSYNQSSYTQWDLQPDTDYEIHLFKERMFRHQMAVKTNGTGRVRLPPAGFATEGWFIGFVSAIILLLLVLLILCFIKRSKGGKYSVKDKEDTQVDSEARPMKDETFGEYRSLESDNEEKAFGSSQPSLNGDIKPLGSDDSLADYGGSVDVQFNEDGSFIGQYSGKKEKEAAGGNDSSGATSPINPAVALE
UniProt Q12905, sequence (Q12905 whole entry): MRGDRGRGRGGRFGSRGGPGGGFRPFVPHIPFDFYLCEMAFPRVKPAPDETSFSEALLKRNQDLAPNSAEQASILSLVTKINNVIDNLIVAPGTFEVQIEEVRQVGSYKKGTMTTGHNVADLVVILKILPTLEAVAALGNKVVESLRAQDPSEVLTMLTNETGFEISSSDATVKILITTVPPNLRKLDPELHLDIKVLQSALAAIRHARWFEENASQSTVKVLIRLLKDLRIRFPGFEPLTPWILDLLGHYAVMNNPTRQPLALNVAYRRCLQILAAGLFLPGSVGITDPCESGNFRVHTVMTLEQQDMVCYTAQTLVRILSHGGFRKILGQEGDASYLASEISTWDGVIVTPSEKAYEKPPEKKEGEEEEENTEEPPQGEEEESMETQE
UniProt Q16637, sequence (Q16637 whole entry): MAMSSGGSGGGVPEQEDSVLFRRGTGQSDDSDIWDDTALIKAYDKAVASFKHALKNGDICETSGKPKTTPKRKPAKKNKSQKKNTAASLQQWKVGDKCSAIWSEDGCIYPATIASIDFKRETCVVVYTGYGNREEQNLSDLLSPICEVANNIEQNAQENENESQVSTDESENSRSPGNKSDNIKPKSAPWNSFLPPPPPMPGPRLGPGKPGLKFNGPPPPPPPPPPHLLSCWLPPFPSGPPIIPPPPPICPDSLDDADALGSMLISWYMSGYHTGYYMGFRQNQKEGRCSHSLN
UniProt P13693, sequence (P13693 whole entry): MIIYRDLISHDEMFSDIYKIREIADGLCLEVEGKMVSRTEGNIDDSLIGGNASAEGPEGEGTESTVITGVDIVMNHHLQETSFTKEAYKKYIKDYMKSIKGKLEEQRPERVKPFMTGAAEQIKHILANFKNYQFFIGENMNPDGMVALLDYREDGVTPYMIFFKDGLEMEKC
UniProt Q9BSF8, sequence (Q9BSF8 whole entry): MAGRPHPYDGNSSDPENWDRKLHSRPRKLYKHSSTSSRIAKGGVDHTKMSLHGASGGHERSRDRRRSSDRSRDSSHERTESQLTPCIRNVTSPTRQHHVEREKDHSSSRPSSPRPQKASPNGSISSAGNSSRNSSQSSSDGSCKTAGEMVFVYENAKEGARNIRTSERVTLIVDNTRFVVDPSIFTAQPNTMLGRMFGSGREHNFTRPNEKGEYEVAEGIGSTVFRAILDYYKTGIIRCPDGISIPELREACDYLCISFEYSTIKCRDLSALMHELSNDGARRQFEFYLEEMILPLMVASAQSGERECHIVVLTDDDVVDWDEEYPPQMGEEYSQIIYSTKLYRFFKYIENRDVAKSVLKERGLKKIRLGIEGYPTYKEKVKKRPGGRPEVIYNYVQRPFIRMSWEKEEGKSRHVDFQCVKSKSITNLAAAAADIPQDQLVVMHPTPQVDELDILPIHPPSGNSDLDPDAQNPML
UniProt Q9BS40, sequence (Q9BS40 whole entry): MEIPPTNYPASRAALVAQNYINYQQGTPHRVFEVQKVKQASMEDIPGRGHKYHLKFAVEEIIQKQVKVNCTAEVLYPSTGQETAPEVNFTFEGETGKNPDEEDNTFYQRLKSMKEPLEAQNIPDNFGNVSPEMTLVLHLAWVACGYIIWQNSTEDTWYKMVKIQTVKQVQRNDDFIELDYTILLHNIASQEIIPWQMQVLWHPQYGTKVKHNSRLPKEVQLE
UniProt Q15031, sequence (Q15031 whole entry): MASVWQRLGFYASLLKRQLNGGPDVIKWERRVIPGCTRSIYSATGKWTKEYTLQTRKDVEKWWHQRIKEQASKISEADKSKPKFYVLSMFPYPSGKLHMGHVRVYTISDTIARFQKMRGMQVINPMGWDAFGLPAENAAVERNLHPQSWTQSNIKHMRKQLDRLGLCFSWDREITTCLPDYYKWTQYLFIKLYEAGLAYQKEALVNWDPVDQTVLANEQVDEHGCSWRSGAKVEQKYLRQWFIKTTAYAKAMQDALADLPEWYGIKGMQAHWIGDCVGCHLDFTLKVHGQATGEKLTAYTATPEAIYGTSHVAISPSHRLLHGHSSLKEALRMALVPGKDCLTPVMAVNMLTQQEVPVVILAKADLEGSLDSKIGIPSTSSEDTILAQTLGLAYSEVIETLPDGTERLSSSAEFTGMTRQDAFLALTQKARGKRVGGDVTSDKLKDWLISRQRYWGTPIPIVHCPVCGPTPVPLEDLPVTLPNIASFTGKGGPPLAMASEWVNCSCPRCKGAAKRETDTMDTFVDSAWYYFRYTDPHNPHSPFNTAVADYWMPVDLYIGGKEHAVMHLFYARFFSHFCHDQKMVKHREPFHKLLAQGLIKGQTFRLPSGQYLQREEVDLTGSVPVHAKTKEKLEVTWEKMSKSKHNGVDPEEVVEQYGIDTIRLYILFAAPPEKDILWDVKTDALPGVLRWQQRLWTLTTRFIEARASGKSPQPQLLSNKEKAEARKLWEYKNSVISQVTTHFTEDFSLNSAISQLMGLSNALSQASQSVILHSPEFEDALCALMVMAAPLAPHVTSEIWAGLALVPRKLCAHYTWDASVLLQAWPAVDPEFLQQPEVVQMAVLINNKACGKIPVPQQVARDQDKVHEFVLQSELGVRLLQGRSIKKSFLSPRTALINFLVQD
UniProt O43734, sequence (O43734 whole entry): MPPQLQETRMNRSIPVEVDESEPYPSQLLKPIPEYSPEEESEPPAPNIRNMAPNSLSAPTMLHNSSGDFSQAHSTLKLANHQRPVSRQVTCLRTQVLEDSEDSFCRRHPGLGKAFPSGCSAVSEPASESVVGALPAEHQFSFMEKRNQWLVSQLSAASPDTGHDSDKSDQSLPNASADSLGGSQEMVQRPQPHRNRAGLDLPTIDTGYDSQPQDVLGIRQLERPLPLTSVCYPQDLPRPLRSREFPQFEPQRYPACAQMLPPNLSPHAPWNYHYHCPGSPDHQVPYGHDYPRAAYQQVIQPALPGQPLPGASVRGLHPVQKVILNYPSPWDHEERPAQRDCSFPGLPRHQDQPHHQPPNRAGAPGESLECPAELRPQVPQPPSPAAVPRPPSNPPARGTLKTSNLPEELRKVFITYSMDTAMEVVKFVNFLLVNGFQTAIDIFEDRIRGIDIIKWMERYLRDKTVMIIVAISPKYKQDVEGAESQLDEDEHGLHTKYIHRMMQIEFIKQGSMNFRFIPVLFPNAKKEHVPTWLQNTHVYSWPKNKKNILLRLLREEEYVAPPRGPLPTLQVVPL
UniProt O96005, sequence (O96005 whole entry): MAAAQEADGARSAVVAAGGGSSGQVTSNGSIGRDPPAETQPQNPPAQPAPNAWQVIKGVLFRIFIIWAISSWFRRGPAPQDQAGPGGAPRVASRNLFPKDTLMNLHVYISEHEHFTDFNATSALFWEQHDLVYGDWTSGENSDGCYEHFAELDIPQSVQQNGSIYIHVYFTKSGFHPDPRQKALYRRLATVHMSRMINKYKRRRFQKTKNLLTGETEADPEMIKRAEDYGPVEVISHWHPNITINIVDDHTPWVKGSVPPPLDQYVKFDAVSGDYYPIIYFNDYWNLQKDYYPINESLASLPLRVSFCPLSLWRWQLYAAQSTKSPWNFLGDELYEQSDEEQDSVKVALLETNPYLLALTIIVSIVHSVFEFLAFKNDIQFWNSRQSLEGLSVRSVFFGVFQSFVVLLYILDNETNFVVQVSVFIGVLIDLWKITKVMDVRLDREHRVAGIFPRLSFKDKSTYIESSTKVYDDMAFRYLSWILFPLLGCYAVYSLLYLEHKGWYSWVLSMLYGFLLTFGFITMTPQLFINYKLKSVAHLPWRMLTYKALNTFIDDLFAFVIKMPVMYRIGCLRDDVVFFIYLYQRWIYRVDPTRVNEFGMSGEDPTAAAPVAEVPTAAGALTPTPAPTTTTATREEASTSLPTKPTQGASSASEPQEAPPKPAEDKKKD

| Target | thermal stability z-score (lipoamide; [1]) | thermal stability z-score (lipoamide; arsenate co-treatment: none) | thermal stability z-score (potassium arsenate) |
| --- | --- | --- | --- |
| NIPSNAP1 (UniProt Q9BPW8) | -1.48 | -0.204 | -0.872 |
| WDR13 (UniProt Q9H1Z4) | -0.241 | -0.115 | -0.408 |
| ORC2 (UniProt Q13416) | 0.0753 | 0.0589 | 0.0824 |
| LXN (UniProt Q9BS40) | 0.274 | 0.0402 | 0.992 |
| NOMO2 (UniProt Q5JPE7) | -3.91 | -3.99 | 0.407 |
| LARS2 (UniProt Q15031) | -0.0508 | 0.0433 | -0.741 |
| SEH1L (UniProt Q96EE3) | 0.886 | 0.611 | 0.803 |
| ILF2 (UniProt Q12905) | 0.0392 | 0.153 | -1.96 |
| MOGS (UniProt Q13724) | -1.24 | -0.979 | 0.158 |
| PARP2 (UniProt Q9UGN5) | 0.0296 | -0.0685 | -0.0979 |
| HSP90AA4P (UniProt Q58FG1) | -1.84 | -1.53 | -2.39 |
| KIF22 (UniProt Q14807) | -0.451 | 0.147 | -0.386 |
| RPL11 (UniProt P62913) | 0.156 | 0.371 | -1.44 |
| PCBP2 (UniProt Q15366) | -0.426 | -0.239 | 0.141 |
| KLHL42 (UniProt Q9P2K6) | -0.26 | -0.0102 | -0.142 |
| RPS6KA3 (UniProt P51812) | -0.607 | -0.345 | 0.388 |
| CECR5 (UniProt Q9BXW7) | -0.169 | 0.0959 | 0.99 |
| ANP32A (UniProt P39687) | 0.324 | 0.51 | 0.197 |
| TMEM263 (UniProt Q8WUH6) | 0.283 | -0.54 | 1.43 |
| DNPEP (UniProt Q9ULA0) | -0.183 | 0.0127 | 0.248 |
| EHMT2 (UniProt Q96KQ7) | 0.132 | 0.0958 | -0.273 |
| MGAT4B (UniProt Q9UQ53) | 0.713 | -0.264 | 0.26 |
| SKA2 (UniProt Q8WVK7) | -0.397 | -0.0647 | -0.271 |
| PANX1 (UniProt Q96RD7) | 0.67 | 0.0977 | 0.123 |

| Target | thermal stability z-score (lipoamide; [1]) | thermal stability z-score (lipoamide; arsenate co-treatment: none) | thermal stability z-score (potassium arsenate) |
| --- | --- | --- | --- |
| LARP4 (UniProt Q71RC2) | -0.463 | -0.301 | -0.708 |
| TIMMDC1 (UniProt Q9NPL8) | 0.185 | -0.271 | 0.538 |
| BTBD10 (UniProt Q9BSF8) | 0.00662 | 0.0899 | -0.162 |
| TRAM1 (UniProt Q15629) | -0.499 | -1.11 | 0.968 |
| TMA16 (UniProt Q96EY4) | -0.345 | -0.0887 | -0.0752 |
| NUP35 (UniProt Q8NFH5) | 0.043 | -0.376 | 1.25 |
| SPCS3 (UniProt P61009) | -1.66 | -1.75 | 0.879 |
| RAB3GAP1 (UniProt Q15042) | -0.562 | -0.113 | 0.764 |
| CHMP7 (UniProt Q8WUX9) | -0.517 | -0.865 | -0.0641 |
| RAB18 (UniProt Q9NP72) | 0.167 | 0.352 | 0.672 |
| L1CAM (UniProt P32004) | 0.0694 | -0.375 | -0.0837 |
| ENSA (UniProt O43768) | 0.841 | 0.567 | 0.481 |
| HEL | -0.604 | -0.392 | -0.18 |
| CPSF3 (UniProt Q9UKF6) | 0.15 | -0.0907 | -0.0903 |
| TPT1 (UniProt P13693) | 0.494 | 0.196 | -0.445 |
| POLA1 (UniProt P09884) | -0.387 | 0.167 | -0.306 |
| KIF13A (UniProt Q9H1H9) | 0.286 | -0.0098 | 0.0799 |
| FOSL1 (UniProt P15407) | 0.361 | -0.0186 | -0.444 |
| NADK2 (UniProt Q4G0N4) | 0.539 | 0.491 | -0.584 |
| GPBP1L1 (UniProt Q9HC44) | -0.469 | -0.326 | 0.365 |
| SLC4A2 (UniProt P04920) | 0.115 | 0.433 | 0.173 |
| TMEM165 (UniProt Q9HC07) | 0.669 | -0.0469 | 0.116 |
| CLPTM1 (UniProt O96005) | -3.11 | -2.81 | 0.0364 |
| POLR1C (UniProt O15160) | 0.267 | 0.621 | -1.08 |

| Target | thermal stability z-score (lipoamide; [1]) | thermal stability z-score (lipoamide; arsenate co-treatment: none) | thermal stability z-score (potassium arsenate) |
| --- | --- | --- | --- |
| CNTLN (UniProt Q9NXG0) | -0.163 | -0.342 | -0.0711 |
| CHD9 (UniProt Q3L8U1) | -0.0359 | -0.0662 | 0.384 |
| CHMP1A (UniProt Q9HD42) | 0.125 | 0.254 | 0.38 |
| NFIA (UniProt Q12857) | -1.05 | -1.1 | -0.647 |
| CANT1 (UniProt Q8WVQ1) | 0.0524 | 0.482 | -0.0872 |
| GYG1 (UniProt P46976) | -0.215 | 0.14 | -0.536 |
| SBDS (UniProt Q9Y3A5) | 0.328 | 0.706 | 0.306 |
| SLC25A5 (UniProt P05141) | 0.657 | 0.589 | 0.562 |
| ROCK2 (UniProt O75116) | 0.504 | 0.462 | 0.245 |
| CHP1 (UniProt Q99653) | 0.377 | 0.436 | 1.28 |
| PRPF38A (UniProt Q8NAV1) | 0.22 | 0.213 | 0.503 |
| PTPN12 (UniProt Q05209) | -0.407 | -0.595 | -0.087 |
| ALG6 (UniProt Q9Y672) | 0.3 | 0.171 | -0.233 |
| TENM3 (UniProt Q9P273) | 0.179 | -0.452 | -0.147 |
| EBAG9 (UniProt O00559) | 1.73 | 1.25 | 0.749 |
| GAB1 (UniProt Q13480) | -0.149 | 0.0158 | -0.0474 |
| GMEB1 (UniProt Q9Y692) | -0.239 | -0.0658 | 0.19 |
| TRAF3IP2 (UniProt O43734) | -0.106 | -0.159 | -0.155 |
| RAB5A (UniProt P20339) | -0.751 | -0.744 | -0.695 |
| SGPP1 (UniProt Q9BX95) | 0.332 | -0.299 | -0.0282 |
| PDLIM2 (UniProt Q96JY6) | -0.719 | -0.463 | -0.0521 |
| SMN1 (UniProt Q16637) | 0.304 | 0.798 | -0.434 |
| PTMA (UniProt P06454) | 1.3 | 1.23 | 0.425 |
